Test results from publication PMC10051393, “Spectroscopic and Theoretical Analysis of the Interaction between Plasma Proteins and Phthalimide Analogs with Potential Medical Application” (Life, 2023).

Experiments:
[1] = test system: T1, α1-acid glycoprotein (AAG); orosomucoid; assay: intrinsic Trp fluorescence quenching, excitation […] nm; format: binding; conditions: 297 K, pH 7.4, phosphate buffer, 1.0 μM protein; double-log
T1 construct: gene ORM1; native commercial plasma glycoprotein (Sigma-Aldrich); ORM1 is the main plasma form

[2] = target: T2, bovine serum albumin (BSA) (Bos taurus, UniProt P02769); assay: as above; format: binding; conditions: 297 K, pH 7.4, phosphate buffer, 1.0 μM protein, no site marker; double-log
T2 construct: gene ALB; native commercial protein (Sigma-Aldrich), untagged mature serum albumin
T2 sequence (P02769 25-607): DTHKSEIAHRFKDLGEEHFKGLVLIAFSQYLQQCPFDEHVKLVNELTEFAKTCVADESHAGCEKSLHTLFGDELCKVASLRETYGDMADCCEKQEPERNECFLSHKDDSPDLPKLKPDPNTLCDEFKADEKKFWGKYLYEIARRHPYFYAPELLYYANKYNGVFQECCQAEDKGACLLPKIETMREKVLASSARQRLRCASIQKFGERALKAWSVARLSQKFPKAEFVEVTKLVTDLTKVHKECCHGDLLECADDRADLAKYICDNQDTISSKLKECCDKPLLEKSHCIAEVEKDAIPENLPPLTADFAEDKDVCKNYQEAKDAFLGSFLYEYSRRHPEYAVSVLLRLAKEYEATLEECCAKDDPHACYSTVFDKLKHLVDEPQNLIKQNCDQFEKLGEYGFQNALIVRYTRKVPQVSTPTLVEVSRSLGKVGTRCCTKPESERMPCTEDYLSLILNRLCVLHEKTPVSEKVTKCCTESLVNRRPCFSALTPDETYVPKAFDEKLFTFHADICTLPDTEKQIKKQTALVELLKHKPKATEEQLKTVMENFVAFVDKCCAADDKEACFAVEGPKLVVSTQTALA

| SMILES | Binding Parameters / Kb × 10^3 [L.mol^-1] [1] | Binding Parameters / Kb × 10^4 [L.mol^-1] [2] |
| --- | --- | --- |
| O=C1c2ccccc2C(=O)N1CN1CCN(c2cccc(C(F)(F)F)c2)CC1 [C, compound C] | 1.48 × 10^3 L·mol^−1 | 43.61 × 10^4 L·mol^−1 |
| O=C1c2ccccc2C(=O)N1CN1CCN(c2ccccc2)CC1 [A, compound A] | 4.27 × 10^3 L·mol^−1 | 1.89 × 10^4 L·mol^−1 |
| COc1ccccc1N1CCN(CN2C(=O)c3ccccc3C2=O)CC1 [B, compound B] | 1.86 × 10^3 L·mol^−1 | 2.01 × 10^4 L·mol^−1 |
| O=C1c2ccccc2C(=O)N1CN1CCN(C(c2ccccc2)c2ccccc2)CC1 [D, compound D] | 2.09 × 10^3 L·mol^−1 | 11.72 × 10^4 L·mol^−1 |
